SMILES strings stand for the structures. Counter-ions that a name gives are not always drawn.

Data set [1] in a line: Plasma hydrolysis of nalbuphine prodrug, monkey plasma.
Data set [2] in a line: Plasma hydrolysis of nalbuphine prodrug, human plasma.
Data set [3] in a line: Plasma hydrolysis of nalbuphine prodrug, dog plasma.
Data set [4] can be described thus: Plasma hydrolysis of nalbuphine prodrug, rat plasma.
Data set [5] is described as follows: Oral 3-hydroxymorphinan bioavailability (nalbuphine), rat. The note with it: plasma, 20 mg/kg.
Data set [6] can be described thus: Oral nalbuphine bioavailability, monkey. The note with it: 4 mg nalbuphine/kg, % dose, two values, 4 mg/kg.
The nature of data set [7]: Oral 3-hydroxymorphinan bioavailability, dog (drug and prodrugs). The conditions noted are these: 4 mg/kg.
Data set [8] can be described thus: Oral nalbuphine bioavailability, human.
Data set [9] can be described thus: Oral 3-hydroxymorphinan bioavailability, species not printed at the place. The conditions noted are these: 10 mg naloxone/kg, species not given.

On to `Nc1ccccc1C(=O)Oc1ccc2c3c1O[C@H]1[C@@H](O)CC[C@@]4(O)[C@@H](C2)N(CC2CCC2)CC[C@]314` [Example 2, Nalbuphine-3-anthranilate hydrochloride], for which the half-life at 0.28 µM was 198 min in data set [1], 2700 min in data set [2], 876 min in [3] and 90 min in [4].
On to `CC(=O)Oc1ccccc1C(=O)Oc1ccc2c3c1O[C@H]1[C@@H](O)CC[C@@]4(O)[C@@H](C2)N(CC2CCC2)CC[C@]314` [Example 1, Nalbuphine-3-(acetylsalicylate)], for which the half-life at 0.28 µM in [1] was 36 min; in data set [2], 372 min; in data set [3] it was 168 min; in data set [4], 12 min.
For `Oc1ccc2c3c1O[C@H]1[C@@H](O)CC[C@@]4(O)[C@@H](C2)N(CC2CCC2)CC[C@]314` [nalbuphine, (-)-17-(Cyclobutylmethyl)-4,5α-epoxymorphinan-3,6α,14-triol], the bioavailability in data set [5] amounted to 2.7 ± 0.4%; in [6] (plasma, po, Oral nalbuphine bioavailability (F)) it was 0.9%; in data set [7] (plasma, po), 5.4%; in data set [8] (plasma, po, 45 mg) it was 14%. In addition, the “Oral nalbuphine bioavailability (F)” value in data set [6] came out at 1.6%; in data set [7] (oral, 4 mg nalbuphine/kg, % dose, mean ± SE), 5.4 ± 0.9%; in data set [8] (45 mg tablet or solution, % dose) it was 14%.
Turning to `C=CCN1CC[C@]23c4c5ccc(O)c4O[C@H]2C(=O)CC[C@@]3(O)[C@H]1C5` [naloxone HCl, (-)-17-Allyl-4,5α-epoxy-3,14-dihydroxymorphinan-6-one], the “Plasma naloxone concentrations after oral naloxone HCl” value in data set [9] was “close to the assay detection limits and as such were erratic”.

For orientation: half-life means how long it takes for the measured level to halve. One may read the bioavailability as dose-corrected exposure relative to a reference, in per cent.

(Values after patent publication US4668685A (priority 1985, dated 1987).)
